The values below come from US6165998A, “Antifungal agents” (Scriptgen Pharmaceuticals, Inc., priority 1998, dated 2000).

The test system of data set [1] is Candida strains resistance to ketoconazole or to amphotericin B. The data set is described as follows: Antifungal activity against resistant Candida strains. It counts as cell-based.
In data set [2] the test system is Trichophyton mentagrophytes. Put plainly: Activity against human dermatophytic fungi. It counts as cell-based.
Data set [3] has as its target T1, C. albicans RNA polymerase II (Candida albicans, UniProt A0A1D8PUA6+Q5A8Y5).
T1 construct: RNA elongation assay on calf thymus DNA
The data set is described as follows: biochemical. The note with it: for IC50: Table 1, read-out: IC50 Candida pol II. As to the method:
(§1) The following procedure is used for cell-free high-throughput screening. A Tomtec Quadra 96-well pipetting station is used to add the reaction components to polypropylene 96-well dishes. 5 μl aliquots of test compounds dissolved in DMSO (or DMSO alone as a control) are added to wells. This is followed by 20 μl of the RNA polymerase II mixture, which consists of: 10 mM DTT, 200 mM KCl, 10 mM Mn^+2, 1.5 μM bovine serum albumin, and 0.25 μg reconstituted RNA polymerase. After allowing the test compound to interact with the RNA polymerase, 25 μl of the DNA/NTP mixture is added, containing: 1 μg calf thymus DNA, 4 μM [α-^32 P]-UTP, and 400 μM each CTP, ATP, and GTP.
(§2) After incubation for 60 min at 30 C, the reaction is stopped by addition of 50 μl 15% trichloroacetic acid (TCA). The TCA-precipitated RNA is adsorbed onto double-thick glass fiber filtermats using a Tomtec cell harvester. The wells of the microtiter plate and the filter are washed twice with 5% TCA and bound radioactivity is determined using a Wallac microbeta 1450 scintillation counter.
(§3) Inhibitory activity due to the test compound is calculated according to the formula: [formula] where cpmpositive control represents the average of the cpm in wells that received DMSO alone, and cpmsample represents the cpm in the well that received test compound. Compounds that cause at least 50% inhibition are scored as positive "hits" in this assay.
(§4) DNA-directed RNA polymerase II from Candida albicans was purified in sufficient quantity to support high throughput screening of large synthetic chemical and natural product libraries. A biochemical mechanism-based screen for detecting inhibitors of Pol II was developed and implemented. The screen is outlined in FIGS. 4A and 4B.

Data set [4] deals with C. albicans resistant to fluconazole. The data set is described as follows: Systemic candidiasis caused by fluconazole-resistant C. albicans. The conditions noted are these: mouse, in vivo. How it is done:
(§5) In addition, Compound 1 was efficacious in a murine model for systemic candidiasis (FIG. 10). It prolonged mean and median survival times of treated mice in the dosage range of 5 mg/kg/d to 100 mg/kg/d on aq.d., d2-11 schedule. […] The efficacy of Compound 1 was confirmed in a separate experiment using amphotericin as a control (FIG. 11). Compound 1 was also efficacious when administered orally to mice with an established systemic Candida infection (FIG. 12). […] Compound 1 is also effective against systemic candidiasis caused by a strain of C. albicans resistant to fluconazole (FIG. 13). Additional animal testing will include acute toxicity determination, route and schedule dependency in standard efficacy models, efficacy testing in immunosuppressed Candida infected mice, efficacy in an Aspergillus infection model, and pharmacokinetics following IV and oral dosing.
(§6) Compound 6 was evaluated for antifungal efficacy in a systemic candidiasis model in immunocompetent mice (FIG. 18). The compound was administered IP on a q.d., d2-11 schedule. […] 90% long term survival was seen formice treated with Compound 6 at 200/mg/kg. 30% of mice survived when treated with Compound 6 at 100 mg/kg/d. Compound 6 was also effective against systemic candidiasis when administered orally (FIG. 19) and it was effective in treating infections caused by fluconazole-resistant C. albicans.

The subject of the next data set is S. cerevisiae. The data set is described as follows: Time course of fungicidal activity, S. cerevisiae. In kind it is cell-based, Saccharomyces cerevisiae. From the text:
(§7) Compound 1 is rapidly fungicidal.

Data set [5] in a line: Safety assessment, oral toxicity. In kind it is in vivo. The conditions noted are these: orally at 300 mg/kg. As to the method: (§8) A safety assessment of Compound 1 was conducted. The compound was negative for effects in a number of CNS, cardiovascular, intermediary metabolism, allergy/inflammation and gastrointestinal targets. The compound was nontoxic when administered orally at 300 mg/kg.

For another data set, the system named is fungal pathogens. Put plainly: In vitro antifungal activity (MIC). It counts as cell-based.
The target in the next data set is T2, human Pol II (Homo sapiens, UniProt P24928+P30876).
T2 construct: Pol II was isolated from Aspergillus nidulans, Saccharomyces cerevisiae, and human cells; endogenous in cells; enzyme isolated from them
Put plainly: RNA polymerase II counterscreen, human pol II. It counts as biochemical. How it is done:
Pol II was isolated from Aspergillus nidulans, Saccharomyces cerevisiae, and human cells (FIG. 5) and used in secondary screens for fungal spectrum and specificity. Pol I and Pol III were isolated from Candida albicans and used as an additional mechanism to study specificity. Confirmed hits form the primary assay and were evaluated against this panel of polymerases. Agents with activity against Pol II from multiple fungal enzymes but not against the human counterpart were evaluated in vitro against fungal pathogens.

A short description of data set [6]: Compound-related toxicity in treated mice. In kind it is in vivo, mouse. As to the method:
as §5, §6

Another data set relates to Fusarium culmorum. Put plainly: MIC against plant pathogen. It counts as cell-based.
Data set [7] relates to systemic Candida infection. Put plainly: Murine model for systemic candidiasis. In kind it is in vivo, mouse. As to the method: as §5, §6
Data set [8] in a line: Safety assessment on target panel. As to the method:
as §8

The subject of data set [9] is C. albicans. The data set is described as follows: Time course of fungicidal activity, C. albicans. In kind it is cell-based, Candida albicans.
Excerpt: as §7

The test system of another data set is monkey kidney cells. Put plainly: Toxicity against monkey kidney cells. It counts as cell-based.
The test system of data set [10] is C. albicans. The data set is described as follows: Frequency of resistance study, C. albicans. The conditions noted are these: selective concentrations 1× to 10× the MIC. In kind it is cell-based, Candida albicans. As to the method:
A frequency of resistance study is conducted for Compound 1 using C. albicans and S. cerevisiae, with amphotericin B as the comparator. Selective concentrations of each compound between 1× and 10× the MIC are used for each compound.

The test system of another data set is wild type C. tropicalis. The data set is described as follows: MIC alone and with sub-MIC amphotericin B, C. tropicalis. In kind it is cell-based, Candida tropicalis. From the text: (§9) This synergy was not seen in an amphotericin-resistant strain. Subsequent experiments in a 2-way titration format confirmed the synergistic activity of the combination (FIG. 18). The synergy noted between these two agents was unique among the tested antifungal compounds, and was not noted for other promising compounds identified in the high throughput screen.

The test system of data set [11] is amphotericin-resistant strain. Put plainly: Synergy with amphotericin B in amphotericin-resistant strain. It counts as cell-based.
Excerpt: as §9

Data set [12] concerns C. albicans. The data set is described as follows: MIC alone and with sub-MIC amphotericin B, C. albicans. In kind it is cell-based, Candida albicans.
Excerpt: as §9

In data set [13] the test system is C. albicans RNA polymerase II. Put plainly: biochemical. How it is done: as §1, §2, §3, §4
Setting [14] is: Table 1, antifungal activity, read-out: MIC.
The mark [15] stands for this setting: listed as stilbene isostere of Compound 1.

≈ marks a conversion by molar mass, not a printed value. Entries after “also recorded” stand apart in the source; their conditions may differ. Like-named read-outs stand apart in the source and are kept apart here.

T1 sequence (A0A1D8PUA6 1-1728): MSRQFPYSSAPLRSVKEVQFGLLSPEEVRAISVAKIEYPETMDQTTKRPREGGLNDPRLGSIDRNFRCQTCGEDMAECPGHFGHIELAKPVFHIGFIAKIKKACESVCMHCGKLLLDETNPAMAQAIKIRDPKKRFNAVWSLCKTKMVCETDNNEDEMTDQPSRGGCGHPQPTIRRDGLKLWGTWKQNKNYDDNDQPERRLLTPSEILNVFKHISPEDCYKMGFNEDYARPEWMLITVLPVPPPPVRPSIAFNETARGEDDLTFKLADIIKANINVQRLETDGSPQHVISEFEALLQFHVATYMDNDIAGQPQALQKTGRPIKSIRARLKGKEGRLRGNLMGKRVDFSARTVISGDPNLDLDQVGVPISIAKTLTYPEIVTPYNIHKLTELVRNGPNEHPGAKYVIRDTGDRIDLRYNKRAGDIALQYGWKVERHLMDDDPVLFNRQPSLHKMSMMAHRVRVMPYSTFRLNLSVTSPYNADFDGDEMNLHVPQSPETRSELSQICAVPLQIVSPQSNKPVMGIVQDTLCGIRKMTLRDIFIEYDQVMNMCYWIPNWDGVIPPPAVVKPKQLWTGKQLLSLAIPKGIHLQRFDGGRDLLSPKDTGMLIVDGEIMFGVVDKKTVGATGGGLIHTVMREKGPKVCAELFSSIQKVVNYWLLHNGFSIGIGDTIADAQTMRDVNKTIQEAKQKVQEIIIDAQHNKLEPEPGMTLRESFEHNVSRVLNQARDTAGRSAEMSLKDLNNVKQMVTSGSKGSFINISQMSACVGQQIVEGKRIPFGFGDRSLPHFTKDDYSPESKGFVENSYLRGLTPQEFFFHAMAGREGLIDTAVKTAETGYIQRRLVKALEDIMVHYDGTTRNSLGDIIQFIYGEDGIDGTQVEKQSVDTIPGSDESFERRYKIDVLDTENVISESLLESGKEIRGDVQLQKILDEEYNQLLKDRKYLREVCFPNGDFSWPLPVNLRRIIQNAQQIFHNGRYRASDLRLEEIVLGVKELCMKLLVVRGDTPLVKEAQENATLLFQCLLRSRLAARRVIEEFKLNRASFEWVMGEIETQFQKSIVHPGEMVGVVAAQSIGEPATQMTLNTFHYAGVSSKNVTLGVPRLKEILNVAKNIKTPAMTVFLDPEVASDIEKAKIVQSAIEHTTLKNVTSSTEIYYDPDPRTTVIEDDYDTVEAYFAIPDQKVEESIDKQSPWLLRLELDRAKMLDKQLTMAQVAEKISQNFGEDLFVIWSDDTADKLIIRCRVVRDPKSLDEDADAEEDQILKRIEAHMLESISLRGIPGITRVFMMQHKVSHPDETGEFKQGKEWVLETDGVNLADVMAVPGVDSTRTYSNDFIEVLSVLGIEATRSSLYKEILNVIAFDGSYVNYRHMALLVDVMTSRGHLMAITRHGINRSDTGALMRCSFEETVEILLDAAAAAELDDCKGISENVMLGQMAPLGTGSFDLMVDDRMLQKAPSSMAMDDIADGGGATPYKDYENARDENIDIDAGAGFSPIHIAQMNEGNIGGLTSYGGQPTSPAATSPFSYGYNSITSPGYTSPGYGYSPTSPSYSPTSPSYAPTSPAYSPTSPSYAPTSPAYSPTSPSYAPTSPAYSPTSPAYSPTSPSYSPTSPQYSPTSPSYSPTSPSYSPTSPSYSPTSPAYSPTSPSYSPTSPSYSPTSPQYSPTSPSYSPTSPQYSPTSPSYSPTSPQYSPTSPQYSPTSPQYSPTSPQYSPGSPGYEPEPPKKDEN
T1 sequence (Q5A8Y5 1-1234): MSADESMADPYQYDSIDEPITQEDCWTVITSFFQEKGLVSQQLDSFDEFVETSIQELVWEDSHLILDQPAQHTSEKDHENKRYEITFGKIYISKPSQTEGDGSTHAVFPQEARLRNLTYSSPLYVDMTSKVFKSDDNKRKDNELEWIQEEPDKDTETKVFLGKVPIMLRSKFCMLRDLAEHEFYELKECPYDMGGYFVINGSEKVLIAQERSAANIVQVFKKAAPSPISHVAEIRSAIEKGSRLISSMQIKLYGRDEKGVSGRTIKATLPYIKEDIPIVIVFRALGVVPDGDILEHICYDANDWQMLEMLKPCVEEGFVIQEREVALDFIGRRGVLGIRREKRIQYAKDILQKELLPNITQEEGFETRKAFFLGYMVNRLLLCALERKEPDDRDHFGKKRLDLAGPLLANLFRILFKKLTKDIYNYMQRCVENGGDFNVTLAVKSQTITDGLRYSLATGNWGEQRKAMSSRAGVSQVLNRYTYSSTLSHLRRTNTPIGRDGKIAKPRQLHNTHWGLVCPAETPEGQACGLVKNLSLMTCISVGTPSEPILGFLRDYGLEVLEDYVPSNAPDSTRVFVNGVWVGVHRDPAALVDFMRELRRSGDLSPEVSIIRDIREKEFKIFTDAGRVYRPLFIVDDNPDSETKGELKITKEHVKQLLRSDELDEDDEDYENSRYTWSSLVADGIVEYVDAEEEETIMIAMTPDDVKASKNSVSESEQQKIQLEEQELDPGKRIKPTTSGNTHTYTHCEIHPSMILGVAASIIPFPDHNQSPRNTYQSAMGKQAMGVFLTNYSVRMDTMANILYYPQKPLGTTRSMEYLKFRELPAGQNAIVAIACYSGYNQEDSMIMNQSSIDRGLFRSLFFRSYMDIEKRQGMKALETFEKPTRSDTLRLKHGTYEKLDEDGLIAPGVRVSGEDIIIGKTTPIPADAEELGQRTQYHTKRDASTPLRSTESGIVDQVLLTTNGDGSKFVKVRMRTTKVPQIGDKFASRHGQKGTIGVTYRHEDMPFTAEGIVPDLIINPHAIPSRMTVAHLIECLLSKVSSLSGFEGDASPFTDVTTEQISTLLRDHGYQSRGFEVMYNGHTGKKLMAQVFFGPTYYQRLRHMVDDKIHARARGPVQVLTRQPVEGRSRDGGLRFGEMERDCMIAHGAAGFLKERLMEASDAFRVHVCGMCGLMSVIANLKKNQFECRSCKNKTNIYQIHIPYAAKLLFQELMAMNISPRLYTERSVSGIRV

As to `Oc1ccc(N=Nc2cccc(C(F)(F)F)c2)cc1` [Compound 1, 4-[-2-[3-(trifluoromethyl)phenyl]diazenyl]-phenol], in [1], the “antifungal activity against resistant Candida strains” value is recorded as “retains antifungal activity”. In addition, the “activity against Trichophyton mentagrophytes” value in [2] is “active”. For the same compound, in data set [3], the “fungal Pol II inhibition” value is listed as “potent activity”. Besides, the results for the IC50 (in data set [3]; against human Pol II) were 10 µM and 43 µM, respectively. In addition, in data set [3] (at 20 μM, screening of azo library), 20 µM produced 59% inhibition. For the same compound, in data set [4], the “efficacy against systemic candidiasis caused by fluconazole-resistant C. albicans” value was “effective”. For the same compound, the “exposure time after which no CFUs are recoverable” value in the data set on S. cerevisiae (S. cerevisiae cells) and with C. albicans [9] (C. albicans cells) was 5 min each time. Besides, the “colony forming units after exposure” value was “no detectable colony forming units” with S. cerevisiae (about 10^6 S. cerevisiae cells, 25 μg/ml, 45 minutes) and “no detectable colony forming units” in the data set with C. albicans [9] (about 10^6 C. albicans cells, 25 μg/ml, 45 minutes). In addition, the “toxicity when administered orally” value in data set [5] is given as “nontoxic”. Also, the “in vitro antifungal activity / spectrum” value in the data set with fungal pathogens is on record as “broad spectrum in vitro activity”. Also, the figures for the MIC in the data set on fungal pathogens (setting [14]) and against Fusarium culmorum were 16.6 mg/L (≈ 62.4 µM) and 6.25 mg/L (≈ 23.5 µM), respectively. In data set [6] (IP or PO for 10 days at 100 mg/kg/d), the compound related toxicity entry was “No signs of compound related toxicity”. Also, the “mean and median survival times of treated mice” value in data set [7] (5 mg/kg/d to 100 mg/kg/d, q.d., d2-11) was “prolonged”. Moreover, the “efficacy when administered orally” value in data set [7] (mice with an established systemic Candida infection, oral) is on record as “efficacious”. Also, in data set [7] (systemic candidiasis, mice), the “recoverable colonies from the kidneys of treated animals” value was “reduced”. The “effects in safety assessment targets” value in [8] is given as “negative”. Besides, the “toxicity against monkey kidney cells” value with monkey kidney cells is “essentially non-toxic”. Moreover, the frequency of resistance in the data set with C. albicans [10] is listed as < 1×10^-8.

On to `CCCCN(CCO)c1ccc(N=Nc2c(Br)cc([N+](=O)[O-])cc2[N+](=O)[O-])c(C)c1` [Compound 2], for which the “fungal Pol II inhibition” value in [3] was “potent inhibitor”. In addition, the “fungicidal or fungistatic character” value with fungal pathogens is “does not appear to be fungicidal; also recorded: fungistatic rather than fungicidal”. In addition, the MIC (in general, the lowest concentration that inhibits growth of the organism) in the data set on fungal pathogens (in combination with amphotericin B, strain not named) is 1 to 2 mg/L; in the data set with wild type C. tropicalis (alone), 80 mg/L; in the data set on wild type C. tropicalis (with sub-MIC amphotericin B (1/3 of the MIC)), 1 to 2 mg/L; with C. albicans [12] (alone, ketoconazole resistant C. albicans), 80 mg/L; in the data set on C. albicans [12] (alone, wild type C. albicans), 80 mg/L; in the data set with C. albicans [12] (with sub-MIC amphotericin B (1/3 of the MIC), ketoconazole resistant C. albicans), 1 to 2 mg/L. Moreover, the MIC with C. albicans [12] (with sub-MIC amphotericin B (1/3 of the MIC), wild type C. albicans) is 1 to 2 mg/L. The “synergy with amphotericin B” value in [11] is “not seen”; with C. albicans [12], “act synergistically”. Moreover, the “potency against Candida albicans in vitro” value in the data set with C. albicans [12] is given as “relatively low potency”.

For `Oc1ccc(C=Cc2cccc(C(F)(F)F)c2)cc1` [Compound 6, 4-[-2-[3-(trifluoromethyl)phenyl]ethenyl]phenol], the IC50 – broadly, the concentration that inhibits the measured activity by half – in data set [3] was found to be 70 µM; against human Pol II it was 230 µM. Moreover, the “selectivity for Candida/fungal Pol II relative to human Pol II” value is reported as “selective” in [13] and “retained selective activity” in [13] (setting [15]). In addition, the “efficacy against systemic candidiasis caused by fluconazole-resistant C. albicans” value in [4] was “effective”. Moreover, the entries for the “in vitro antifungal activity / spectrum” value in the data set on fungal pathogens and with fungal pathogens (setting [15]) were “broadly active against fungi” and “had antifungal activity”, respectively. In addition, the minimum inhibitory concentration (MIC) with fungal pathogens (setting [14]) came out at 8.2 mg/L (≈ 31 µM). For the same compound, in data set [6] (IP, q.d., d2-11, any of the treatment groups, immunocompetent mice), the compound-related toxicity entry was “no evidence of compound-related toxicity”. In [7] (IP q.d. d2-11, 100 mg/kg/d, immunocompetent mice), the mice survived was 30%. The compound further came in with a long term survival in data set [7] (IP q.d. d2-11, 200/mg/kg, immunocompetent mice) of 90%. For the same compound, the “efficacy against systemic candidiasis when administered orally” value in data set [7] (oral) was “effective”.
